These results are taken from US20260356856A1, “KRAS G12S AND G12C INHIBITORS” (MIRATI THERAPEUTICS, INC., priority 2023, published 2026).

Assay [1] concerns the target T1, KRas-mediated phosphorylation of ERK in A549 cells (Homo sapiens, UniProt P01116, G12S).
T1 construct: pERK HTRF read-out
Nature of the assay: Inhibition of KRas-mediated phosphorylation of ERK (HTRF), A549 cells. As to conditions: HTRF pERK, 3 h incubation. It is filed as cell-based. (In general: In TR-FRET formats the signal depends on donor and acceptor labels being close together.)

The target of assay [2] is T2, KRas-mediated phosphorylation of ERK in H358 cells (Homo sapiens, UniProt P01116, G12C).
T2 construct: pERK HTRF read-out
T2 sequence (P01116 1-188 isoform P01116-2 G12C): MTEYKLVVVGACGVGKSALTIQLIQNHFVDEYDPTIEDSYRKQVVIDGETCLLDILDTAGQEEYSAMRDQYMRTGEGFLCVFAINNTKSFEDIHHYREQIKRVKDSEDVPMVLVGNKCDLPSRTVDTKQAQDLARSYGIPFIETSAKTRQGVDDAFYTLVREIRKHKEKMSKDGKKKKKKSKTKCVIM
Nature of the assay: Inhibition of KRas-mediated phosphorylation of ERK (HTRF), H358 cells. It is filed as cell-based. To be noted: HTRF pERK, 3 h incubation.

The next assay has as its target T3, KRas G12C (Homo sapiens, UniProt P01116, G12C).
T3 construct: Biotinylated KRas (corresponding to amino acids 1-169, produced at Accelegan Inc.); biotin (biotinylated); purchased Accelegan Inc
Kind of assay: KRas binding assay, TR-FRET displacement of Cy5 labelled tracer. To be noted: 60-minute incubation at room temperature, 1% DMSO, pH 7.5. An outline of the steps:
(§1)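 TR-FRET tracer-displacement readout after 60 min at room temperature, using KRas residues 1-169 (biotinylated) with terbium streptavidin and a Cy5 tracer. Buffer: 50 mM HEPES pH 7.5, 5 mM MgCl2, 0.005% Tween-20, 1 mM DTT, 1% DMSO final. IC50 from 4-parameter fit of POC data.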

Another assay has as its target T4, KRas WT (Homo sapiens, UniProt P01116).
T4 construct: Biotinylated KRas (corresponding to amino acids 1-169, produced at Accelegan Inc.); biotin (biotinylated); purchased Accelegan Inc
The assay is described as above. To be noted: 60-minute incubation at room temperature, 1% DMSO, pH 7.5. In short, it runs like this: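 Compound competes with tracer for biotin-labelled KRas (amino acids 1-169) bound to terbium-streptavidin. Incubation runs 60 minutes at room temperature, final DMSO 1%. IC50 values derive from a 4-parameter fit.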

A further assay concerns the target T5, KRas G12S (Homo sapiens, UniProt P01116, G12S).
T5 construct: Biotinylated KRas (corresponding to amino acids 1-169, produced at Accelegan Inc.); biotin (biotinylated); purchased Accelegan Inc
Described as above. To be noted: 60-minute incubation at room temperature, 1% DMSO, pH 7.5. In short, it runs like this:
as §1

Assay [3] has as its target T6, KRas-mediated phosphorylation of ERK in MKN1 cells (Homo sapiens, UniProt P01116).
T6 construct: pERK HTRF read-out
Kind of assay: Inhibition of KRas-mediated phosphorylation of ERK (HTRF), MKN1 cells. It counts as cell-based. As to conditions: MKN1 cells (KRas WT); HTRF pERK; 3 h incubation. How it is done: Inhibition of KRas Phosphorylation of ERK (HTRF) by Exemplary Compounds of Formula (Ia) or (Ib)
Cisbio HTRF Advanced pERK Assay Catalog #64AERPEH • Cells: MKN1, PSN1 • Procedure: • 1. Day 1: Seed 6,000 cells/well −25 μl/well in 384-well white solid bottom plate; RPM1_10% FBS. Incubate overnight at 37 °C/5% CO2. • 2.

Each structure is given as a SMILES string.

T5 sequence (P01116 1-169 isoform P01116-2 G12S): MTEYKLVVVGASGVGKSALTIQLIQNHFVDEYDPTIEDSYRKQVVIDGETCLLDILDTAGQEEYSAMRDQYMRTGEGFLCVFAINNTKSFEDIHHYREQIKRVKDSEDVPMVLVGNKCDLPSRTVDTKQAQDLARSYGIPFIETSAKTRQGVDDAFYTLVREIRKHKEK
T6 sequence (P01116 1-188 isoform P01116-2): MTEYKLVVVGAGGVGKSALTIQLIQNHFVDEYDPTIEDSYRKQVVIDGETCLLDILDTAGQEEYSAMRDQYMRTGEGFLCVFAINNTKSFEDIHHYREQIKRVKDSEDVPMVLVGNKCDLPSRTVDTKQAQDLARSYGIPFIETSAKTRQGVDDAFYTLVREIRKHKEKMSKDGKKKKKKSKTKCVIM
T4 sequence (P01116 1-169 isoform P01116-2): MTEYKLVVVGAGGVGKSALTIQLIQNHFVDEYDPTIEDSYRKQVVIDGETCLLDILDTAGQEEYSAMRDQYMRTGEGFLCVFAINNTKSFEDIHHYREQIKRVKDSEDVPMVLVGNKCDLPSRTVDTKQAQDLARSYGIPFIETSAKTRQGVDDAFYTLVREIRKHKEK
T3 sequence (P01116 1-169 isoform P01116-2 G12C): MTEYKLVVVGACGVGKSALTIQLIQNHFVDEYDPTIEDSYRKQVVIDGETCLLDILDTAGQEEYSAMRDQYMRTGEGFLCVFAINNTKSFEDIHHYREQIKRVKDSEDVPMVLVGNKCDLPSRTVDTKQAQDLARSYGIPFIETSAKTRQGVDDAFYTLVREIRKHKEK
T1 sequence (P01116 1-188 isoform P01116-2 G12S): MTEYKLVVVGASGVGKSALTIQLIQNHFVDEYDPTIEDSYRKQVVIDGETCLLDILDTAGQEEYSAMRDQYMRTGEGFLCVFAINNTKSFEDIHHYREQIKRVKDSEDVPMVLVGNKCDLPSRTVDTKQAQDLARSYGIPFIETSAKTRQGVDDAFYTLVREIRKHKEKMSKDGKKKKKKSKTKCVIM

As usually defined, the IC50 is the midpoint of a concentration-inhibition curve. Low readings indicate inhibition by little substance, high ones a need for much substance. As for `C=Cc1ccn(C(=O)C2CCN(c3nc(OC[C@@]45CCCN4C[C@H](F)C5)nc4c(F)c(-c5cc(O)cc6ccc(F)c(CC)c56)ncc34)CC2)n1` [Example 66, (1-(7-(8-ethyl-7-fluoro-3-hydroxynaphthalen-1-yl)-8-fluoro-2-(((2R,7aS)-2-fluorotetrahydro-1H-pyrrolizin-7a(5H)-yl)methoxy)pyrido[4,3-d]pyrimidin-4-yl)piperidin-4-yl)(3-vinyl-1H-pyrazol-1-yl)methanone], the IC50 stood at 141 nM in assay [1]; 9020 nM in assay [2]; 57 nM on KRas G12C; 154 nM on KRas WT; 26 nM on KRas G12S; 5200 nM in assay [3].

Turning to `C#Cc1c(F)ccc2cc(O)cc(-c3ncc4c(N5CCC(C(=O)n6ccc(C)n6)CC5)nc(OC[C@@]56CCCN5C[C@H](F)C6)nc4c3F)c12` [Example 67, (1-(7-(8-ethynyl-7-fluoro-3-hydroxynaphthalen-1-yl)-8-fluoro-2-(((2R,7aS)-2-fluorotetrahydro-1H-pyrrolizin-7a(5H)-yl)methoxy)pyrido[4,3-d]pyrimidin-4-yl)piperidin-4-yl)(3-methyl-1H-pyrazol-1-yl)methanone], the IC50 in assay [1] was 113 nM; in assay [2] it was 3080 nM; on KRas G12C, 51 nM; on KRas WT, 15 nM; on KRas G12S it was 17 nM; in assay [3] it was 3290 nM.

On to `CCc1c(F)ccc2cc(O)cc(-c3ncc4c(N5CCCCC(C(=O)n6ccc(C)n6)C5)nc(OC[C@@]56CCCN5C[C@H](F)C6)nc4c3F)c12` (stereo partly drawn) [Example 68, (1-(7-(8-ethyl-7-fluoro-3-hydroxynaphthalen-1-yl)-8-fluoro-2-(((2R,7aS)-2-fluorotetrahydro-1H-pyrrolizin-7a(5H)-yl)methoxy)pyrido[4,3-d]pyrimidin-4-yl)azepan-3-yl)(3-methyl-1H-pyrazol-1-yl)methanone], for which the IC50 amounted to 77 nM in assay [1]; 34 nM in assay [2]; 5 nM on KRas G12C; 10 nM on KRas WT; 6 nM at KRas G12S; 12 nM in assay [3].

Turning to `CCc1c(F)ccc2cc(O)cc(-c3ncc4c(N5CCCN(C(=O)n6ccc(C)n6)CC5)nc(OC[C@@]56CCCN5C[C@H](F)C6)nc4c3F)c12` [Example 69, (4-(7-(8-ethyl-7-fluoro-3-hydroxynaphthalen-1-yl)-8-fluoro-2-(((2R,7aS)-2-fluorotetrahydro-1H-pyrrolizin-7a(5H)-yl)methoxy)pyrido[4,3-d]pyrimidin-4-yl)-1,4-diazepan-1-yl)(3-methyl-1H-pyrazol-1-yl)methanone], the IC50 was 4810 nM in assay [1]; 1120 nM in assay [2]; 79 nM on KRas G12C; 6 nM on KRas WT; 124 nM at KRas G12S; 31 nM in assay [3].

As for `CCc1c(F)ccc2cc(O)cc(-c3ncc4c(N5CCC(C(=O)n6ccc(C)n6)CC5)nc(OC[C@@]56CCCN5C/C(=C\F)C6)nc4c3F)c12` [Example 70, (S,Z)-(1-(7-(8-ethyl-7-fluoro-3-hydroxynaphthalen-1-yl)-8-fluoro-2-((2-(fluoromethylene)tetrahydro-1H-pyrrolizin-7a(5H)-yl)methoxy)pyrido[4,3-d]pyrimidin-4-yl)piperidin-4-yl)(3-methyl-1H-pyrazol-1-yl)methanone], the IC50 in assay [1] came out at 85 nM; in assay [2] it was 7290 nM; on KRas G12C, 31 nM; on KRas WT it was 27 nM; at KRas G12S, 17 nM; in assay [3] it was 5100 nM.

Consider `CCc1c(F)ccc2cc(O)cc(-c3ncc4c(N5CC[C@@H](C(=O)n6ccc(C)n6)[C@H](C)C5)nc(OC[C@@]56CCCN5C[C@H](F)C6)nc4c3F)c12` [Example 71, ((3S,4R)-1-(7-(8-ethyl-7-fluoro-3-hydroxynaphthalen-1-yl)-8-fluoro-2-(((2R,7aS)-2-fluorotetrahydro-1H-pyrrolizin-7a(5H)-yl)methoxy)pyrido[4,3-d]pyrimidin-4-yl)-3-methylpiperidin-4-yl)(3-methyl-1H-pyrazol-1-yl)methanone], for which the IC50 worked out at 2030 nM in assay [1]; 930 nM in assay [2]; 1690 nM on KRas G12C; 2090 nM at KRas WT; 2500 nM at KRas G12S; 8470 nM in assay [3].

Consider `CCc1c(F)ccc2cc(O)cc(-c3ncc4c(N5CCC(C(=O)n6cc(C(C)(C)C)cn6)CC5)nc(OC[C@@]56CCCN5C[C@H](F)C6)nc4c3F)c12` [Example 72, (4-(tert-butyl)-1H-pyrazol-1-yl)(1-(7-(8-ethyl-7-fluoro-3-hydroxynaphthalen-1-yl)-8-fluoro-2-(((2R,7aS)-2-fluorotetrahydro-1H-pyrrolizin-7a(5H)-yl)methoxy)pyrido[4,3-d]pyrimidin-4-yl)piperidin-4-yl)methanone], for which the IC50 in assay [1] came out at 748 nM; in assay [2], 7290 nM; on KRas G12C it was 408 nM; on KRas WT, 572 nM; on KRas G12S, 274 nM; in assay [3], 3330 nM.

`CCc1c(F)ccc2cc(O)cc(-c3ncc4c(N5CCC(C(=O)n6nc(C)c(C)c6C)CC5)nc(OC[C@@]56CCCN5C[C@H](F)C6)nc4c3F)c12` [Example 73, (1-(7-(8-ethyl-7-fluoro-3-hydroxynaphthalen-1-yl)-8-fluoro-2-(((2R,7aS)-2-fluorotetrahydro-1H-pyrrolizin-7a(5H)-yl)methoxy)pyrido[4,3-d]pyrimidin-4-yl)piperidin-4-yl)(3,4,5-trimethyl-1H-pyrazol-1-yl)methanone]: the IC50 in assay [1] came out at 8480 nM; in assay [2] it was 4500 nM; at KRas G12C, 888 nM; on KRas WT, 1080 nM; on KRas G12S it was 2960 nM; in assay [3] it was 5570 nM.

As for `CCc1c(F)ccc2cc(O)cc(-c3ncc4c(N5CCC(C(=O)n6nc(C)cc6C)CC5)nc(OC[C@@]56CCCN5C[C@H](F)C6)nc4c3F)c12` [Example 74, (3,5-dimethyl-1H-pyrazol-1-yl)(1-(7-(8-ethyl-7-fluoro-3-hydroxynaphthalen-1-yl)-8-fluoro-2-(((2R,7aS)-2-fluorotetrahydro-1H-pyrrolizin-7a(5H)-yl)methoxy)pyrido[4,3-d]pyrimidin-4-yl)piperidin-4-yl)methanone], the IC50 in assay [1] came out at 464 nM; in assay [2] it was 2290 nM; on KRas G12C, 578 nM; on KRas WT, 798 nM; on KRas G12S, 885 nM; in assay [3], 3330 nM.

Regarding `CCc1c(F)ccc2cc(O)cc(-c3ncc4c(N5CCC(C(=O)n6ccc(C(C)(C)C)n6)CC5)nc(OC[C@@]56CCCN5C[C@H](F)C6)nc4c3F)c12` [Example 75, (3-(tert-butyl)-1H-pyrazol-1-yl)(1-(7-(8-ethyl-7-fluoro-3-hydroxynaphthalen-1-yl)-8-fluoro-2-(((2R,7aS)-2-fluorotetrahydro-1H-pyrrolizin-7a(5H)-yl)methoxy)pyrido[4,3-d]pyrimidin-4-yl)piperidin-4-yl)methanone], the IC50 in assay [1] worked out at 312 nM; in assay [2], 3110 nM; on KRas G12C, 234 nM; on KRas WT, 378 nM; at KRas G12S it was 346 nM; in assay [3], 1390 nM.
